Results: patent US7902191B2, “Histamine H3 receptor antagonists, preparation and therapeutic uses” (Eli Lilly and Company, priority 2004, dated 2011)

Tests used:
[1] = target: T1, H3R membranes (H3R8-expressing HEK293 cell line) (Homo sapiens, UniProt Q9Y5N1); assay: [35S] GTP γ[S] binding assay, antagonist activity in the presence of agonist R(−)alpha methylhistamine; assay type: biochemical; conditions: results given below the [35S]GTPγS assay
T1 construct: expressed in transfected cells
Description: Membranes isolated as described in (Preparation of Histamine Receptor Subtype Membranes) were used in a [35S]GTPχS functional assay. Binding of [35S]GTPχS to membranes indicates agonist activity. Compounds of the invention of Formula I or II or III were tested for their ability to inhibit binding in the presence of agonists. Alternately, the same transfected cell lines were used for a cAMP assay wherein H3R agonists inhibited forskolin-activated synthesis of cAMP. Compounds of Formula I or II or III were tested for their ability to permit forskolin-stimulated cAMP synthesis in the presence of agonist.
cDNA for the human histamine 3 receptor was cloned and expressed as described in (A. Preparation H1R membranes), above. Transfected cells were selected using G418 ([…]), grown, and tested for histamine binding by the SPA described above. For total binding, cells were assayed in a SPA reaction described above containing 50 mM Tris-HCL (assay buffer), pH 7.6, 1 mg wheat germ agglutinin SPA beads (Amersham Pharmacia Biotech, #RPNQ0001), and 1 nM (3H)-n-alpha-methylhistamine (NEN, NET1027) (total volume per well=200 μl). Thioperimide was added to determine non-specific binding. […]
Antagonist activity of selected compounds was tested for inhibition of [35S] […] Plates were counted in Wallac Trilux 1450 Microbeta scintillation counter for 1 minute. […]

[2] = target: T2, H3R (human histamine 3 receptor) (Homo sapiens, UniProt Q9Y5N1); assay: competitive inhibition SPA binding assay, H3R, (3H)-n-alpha-methylhistamine; conditions: selectivity panel
T2 construct: expressed in transfected cells
Text: The inventive compounds can readily be evaluated by using a competitive inhibition Scintillation Proximity Assay (SPA) based on a H3R binding assay using [3H] α methylhistamine as ligand. Stable cell lines, including but not limited to HEK can be transfected with cDNA coding for H3R to prepare membranes used for the binding assay. The technique is illustrated below (Preparation of Histamine Receptor Subtype Membranes) for the histamine receptor subtypes.
cDNA for the human histamine 3 receptor was cloned and expressed as described in (A. Preparation H1R membranes), above. Transfected cells were selected using G418 ([…]), grown, and tested for histamine binding by the SPA described above. For total binding, cells were assayed in a SPA reaction described above containing 50 mM Tris-HCL (assay buffer), pH 7.6, 1 mg wheat germ agglutinin SPA beads (Amersham Pharmacia Biotech, #RPNQ0001), and 1 nM (3H)-n-alpha-methylhistamine (NEN, NET1027) (total volume per well=200 μl). Thioperimide was added to determine non-specific binding. Several clones were selected as positive for binding, and a single clone (H3R8) was used to prepare membranes for binding studies described above. Five micrograms of protein was used per well in the SPA receptor-binding assay.
To investigate the selectivity of the antagonists for the histamine receptors, a competitive binding assay described above was performed. […]

[3] = target: T3, H4R (human GPRv53 receptor) (Homo sapiens, UniProt Q9H3N8); assay: competitive binding assay, GPRv53 (H4R), (3H) Histamine
T3 construct: expressed in transfected cells; host or cells: HEK293 GPRv53 50 cells (whole-cell homogenate/lysate)
Description: cDNA for the human GPRv53 receptor was cloned and expressed as described in (A. Preparation H1R membranes), above. Transfected cells were selected, tested for histamine binding, and selected. HEK293 GPRv53 50 cells were grown to confluency in DMEM/F12 (Gibco) supplemented with 5% FBS and 500 ug/ml G418 and washed with Delbecco's PBS (Gibco) and harvested by scraping. Whole cells were homogenized with a Polytron tissuemizer in binding buffer, 50 mM Tris pH 7.5. Cell lysates, 50 ug, were incubated in 96 well dishes with 3 nM (3H) Histamine and compounds in binding buffer for 2 hours at room temperature. Lysates were filtered through glass fiber filters (Perkin Elmer) with a Tomtec cell harvester. Filters were counted with melt-on scintillator sheets (Perkin Elmer) in a Wallac Trilux 1450 Microbeta Scintillation counter for 5 minutes.
(§1) To investigate the selectivity of the antagonists for the histamine receptors, a competitive binding assay described above was performed. […] Until the present invention, most known H3R antagonists also bound H4R.

[4] = target: T4, H1R (human histamine 1 receptor) (Homo sapiens, UniProt P35367); assay: competitive SPA binding assay, H1R, 3H-pyrilamine; conditions: selectivity panel
T4 construct: expressed in transfected cells
Description: cDNA for the human histamine 1 receptor (H1R) was cloned into a mammalian expression vector containing the CMV promoter (pcDNA3.1(+), Invitogen) and transfected into HEK293 cells using the FuGENE Tranfection Reagent (Roche Diagnostics Corporation). Transfected cells were selected using G418 (500 μ/ml). Colonies that survived selection were grown and tested for histamine binding to cells grown in 96-well dishes using a scintillation proximity assay (SPA) based radioligand binding assay. Briefly, cells, representing individual selected clones, were grown as confluent monolayers in 96-well dishes (Costar Clear Bottom Plates, #3632) by seeding wells with 25,000 cells and growing for 48 hours (37° C., 5% CO2). Growth media was removed and wells were rinsed two times with PBS (minus Ca^2+ or Mg^2+). For total binding, cells were assayed in a SPA reaction containing 50 mM Tris-HCL (assay buffer), pH 7.6, 1 mg wheat germ agglutinin SPA beads (Amersham Pharmacia Biotech, #RPNQ0001), and 0.8 nM ^3H-pyrilamine (Net-594, NEN) (total volume per well ˜200 μl). Astemizole (10 μM, Sigma #A6424) was added to appropriate wells to determine non-specific binding. Plates were covered with FasCal and incubated at room temperature for 120 minutes. […] Plates were counted in a Wallac Trilux 1450 Microbeta scintillation counter. […]

[5] = target: T5, H2 (human histamine 2 receptor) (Homo sapiens, UniProt P25021); assay: competitive SPA binding assay, H2R, 3H-tiotidine; conditions: selectivity panel
T5 construct: expressed in transfected cells
Description: cDNA for the human histamine 2 receptor was cloned, expressed and transfected into HEK 293 cells as described above. Histamine binding to cells was assayed by SPA described above. For total binding, cells were assayed in a SPA reaction containing 50 mM Tris-HCl (assay buffer), pH 7.6, 1 mg wheat germ agglutinin SPA beads (Amersham Pharmacia Biotech, #RPNQ0001), and 6.2 nM ^3H-tiotidine (Net-688, NEN) (total volume per well=200 μl). Cimetidine (10 μM, Sigma #C4522) was added to appropriate wells to determine non-specific binding.
Several clones were selected as positive for binding, and a single clone (H2R10) was used to prepare membranes for binding studies. Five micrograms of protein was used per well in the SPA receptor-binding assay.
as §1

T1 sequence (Q9Y5N1 whole entry): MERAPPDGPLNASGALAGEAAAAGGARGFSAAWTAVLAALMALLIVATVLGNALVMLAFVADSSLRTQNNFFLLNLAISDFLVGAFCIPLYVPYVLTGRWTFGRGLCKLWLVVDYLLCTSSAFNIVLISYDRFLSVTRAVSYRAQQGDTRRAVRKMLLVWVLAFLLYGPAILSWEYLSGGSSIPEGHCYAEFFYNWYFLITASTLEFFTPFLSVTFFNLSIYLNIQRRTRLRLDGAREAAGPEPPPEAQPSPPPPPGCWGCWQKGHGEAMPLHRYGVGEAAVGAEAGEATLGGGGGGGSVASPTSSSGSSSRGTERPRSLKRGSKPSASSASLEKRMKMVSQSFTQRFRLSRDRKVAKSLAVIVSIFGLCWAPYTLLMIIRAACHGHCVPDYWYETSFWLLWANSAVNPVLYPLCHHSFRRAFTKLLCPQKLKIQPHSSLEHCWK
T4 sequence (P35367 whole entry): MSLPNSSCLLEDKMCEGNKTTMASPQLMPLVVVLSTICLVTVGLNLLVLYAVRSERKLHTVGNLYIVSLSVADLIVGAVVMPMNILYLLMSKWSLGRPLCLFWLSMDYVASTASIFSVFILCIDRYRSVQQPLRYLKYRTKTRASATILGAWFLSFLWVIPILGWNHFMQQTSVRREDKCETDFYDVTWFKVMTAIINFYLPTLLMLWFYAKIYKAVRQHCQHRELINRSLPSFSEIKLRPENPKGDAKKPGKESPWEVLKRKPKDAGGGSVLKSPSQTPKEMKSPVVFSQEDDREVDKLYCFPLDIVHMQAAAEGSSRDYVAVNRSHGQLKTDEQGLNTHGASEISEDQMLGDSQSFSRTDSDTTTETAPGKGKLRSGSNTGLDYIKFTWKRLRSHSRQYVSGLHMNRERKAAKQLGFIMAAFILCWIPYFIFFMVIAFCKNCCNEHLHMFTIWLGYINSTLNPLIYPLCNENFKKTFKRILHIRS
T5 sequence (P25021 whole entry): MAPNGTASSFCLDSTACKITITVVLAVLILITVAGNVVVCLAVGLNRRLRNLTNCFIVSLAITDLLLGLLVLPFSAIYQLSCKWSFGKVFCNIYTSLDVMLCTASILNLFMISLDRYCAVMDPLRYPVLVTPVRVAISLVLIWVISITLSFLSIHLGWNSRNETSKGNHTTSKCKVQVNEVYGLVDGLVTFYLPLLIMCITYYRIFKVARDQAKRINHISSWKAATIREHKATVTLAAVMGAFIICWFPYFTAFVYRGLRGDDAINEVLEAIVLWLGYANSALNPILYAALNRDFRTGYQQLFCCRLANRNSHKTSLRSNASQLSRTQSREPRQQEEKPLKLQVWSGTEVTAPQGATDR
T2 sequence (Q9Y5N1 whole entry): as the sequence (Q9Y5N1 whole entry) above

| Ki [1] | Compound | Ki [2] | Ki ([3]; selectivity panel) | inhibition of binding to H4R compared to H3R ([3]; statement in words) | Ki [4] | Ki [5] |
| --- | --- | --- | --- | --- | --- | --- |
| 1.5 nM | O=C(c1ccc2c(c1)CCC(N1CCCC1)C2)N1CCC[C@H]1CN1CCCC1 (mixture of isomers) [Example 3, (2-Pyrrolidin-1-ylmethyl-pyrrolidin-1-yl)-(6-pyrrolidin-1-yl-5,6,7,8-tetrahydro-naphthalen-2-yl)-methanone] |  |  |  |  |  |
| 7.8 nM | O=C(c1ccc2c(c1)CCC(N1CCOCC1)C2)N1CCC[C@H]1CN1CCCC1 (mixture of isomers) [Example 6, (6-Morpholin-4-yl-5,6,7,8-tetrahydro-naphthalen-2-yl)-(2-pyrrolidin-1-ylmethyl-pyrrolidin-1-yl)-methanone] |  |  |  |  |  |
|  | O=C(c1ccc2c(c1)CCCC2)N1CCC[C@H]1CN1CCCC1 [Example 15, (S)-(2-Pyrrolidin-1-ylmethyl-pyrrolidin-1-yl)-(5,6,7,8-tetrahydro-naphthalen-2-yl)-methanone] | 1.8 nM | ≥ 20000 nM | did not inhibit binding H4R | ≥ 20000 nM | ≥ 17800 nM |
